For series [1], the system named is MYH11 promoter-driven luciferase activity. Kind of series: High-throughput screening, MYH11-Nluc-2A-Tom reporter human ES cell line, luciferase assay. It counts as cell-based. To be noted: small molecules added day 4-14; selected when normalized reads > average+3×STDEV. Here is the method:
FIGS. 1A-1C depict a schematic of high-throughput screening. […] The cells were passaged at day 4 and seeded on the 96-well plate for screening (2×10^6 cells/plate). After the reporter cell line was differentiated into mesoderm, small molecules were added to the cells from day 4 to day 14. FIG. 1B depicts the results of the screening in two batches. The luciferase assay results of individual small molecules were normalized to the average reads of all samples for each batch. The small molecules were selected for further analysis when the normalized reads were greater than “average+3×STDEV”. FIG. 1C depicts optimizing the concentration of the selected small molecules.
The cells were treated with 50 ng/ml FGF2 and 20 ng/ml BMP4 for another two days. The cells were passaged at day 4 and seeded on the 96-well plate for screening (2×10^6 cells/plate). The compounds were added from day 4-14. The Luciferase substrate (1000× dilution) (Nano-Glo Luciferase Assay system, Promega) was added to the medium for 15 min and luminescence was measured. An increase in luminescence indicates increased MYH11 expression, which is an indicator of the contractile smooth muscle cell phenotype. The Thomson custom stem cell Modulator 1, GSK-kinase inhibitor library, SellekChem Kinase inhibitor library, Analyticon NATx library, Prestwick Chemical Library, GlaxoSmithKline Protein Kinase Inhibitors, and part of Enamine Representative Diversity library were used for screening.
High-throughput screening directs contractile smooth muscle cell differentiation—The construction of the MYH11-NLuc-tdTomato human ES cell reporter line generated by CRISPR/Cas9 technology is described in FIGS. 6A-6H. The reporter cell line was differentiated into mesoderm in E8BAC medium (Zhang et al., 2017) for two days and treated with FGF2 and BMP4 to further mature mesoderm for another two days. The cells were then passaged into a 96-well plate and exposed to small molecules for 10 days using a customized robotic workstation (FIG. 1A). The workstation was designed through collaboration with TECAN, which enables us to perform the automatic high-throughput screening at specific time point and in long-term. The medium were changed every other day and the small molecules were added during the feeding. […] We then validated these hits and optimized their concentration.

Series [2] deals with endothelium repair. To be noted: Prasad 2005; Zheng 2014; cited from earlier work.
The subject of series [3] is MYH11-Tom+ cells. Kind of series: Flow cytometric analysis of MYH11-Tom+ cells in SMC differentiation. Particulars: with RepSox 25 μM; DAPT 20 μM, DBZ 10 μM, RO04929097 10 μM; day 10-16. Type of series: cell-based, human. Here is the method:
Data are represented as mean±standard deviation (SD). […] Scale bar=1 mm. […] Scale bar=50 μm. […] Data are represented as mean±SD. Student's t-test, *: P<0.05, n=3.
FIGS. 7A-7G show the target of RepSox. […] Cells were treated with RepSox (25 μM) or SiRNA. […] Cells were treated with RepSox (25 μM) or SiRNA. […] During the smooth muscle cells differentiation, cells were treated with or without RepSox from day 10-11. […] During the smooth muscle cells differentiation, cells were treated with RepSox for 1 or 20 hours at day 12. […] Cells were treated with RepSox and non-targeting control (NT)/SiRNA at day 10. The RNA was isolated at day 14.
Optimized smooth muscle cell differentiation—Human pluripotent stem cell cells (H1) were cultured in E8 medium on a […]™-coated plate. To achieve the best differentiation results, ES cells were split using EDTA at 1:4 ratios two days before the differentiation. The cells reached 80-90% confluency two days later. At the day of the differentiation, ES cells were dissociated by ACCUTASE™ (Invitrogen) for 3-5 min at 37 ° C. The cells were plated on a […]™-coated plate at 1:4 ratios (1×10^5 cells/cm2). […] An increased CHIR99021 concentration of 3 μM decreased cell proliferation at 36 hours but increased MYH11 expression. At 36 hours, the cells were passaged and seeded on a new […]™-coated plate (1.6×10^4 cells/cm2). The low cell density is critical for the differentiation. A cell density of 1.0-4.0×10^4 cells/cm2 for different cell lines can be tested, such that 100% cell confluence will be achieved at day 6, which gives rise to the best differentiation efficiency. The cells were treated with E6T medium (E8 medium minus FGF2 but still containing 1.7 ng/ml TGF-β1) for 18 hours to induce the transient and medium level expression of MEOX1. E5F medium (E8 medium minus insulin and TGF-β1, but still containing 100 ng/ml FGF2) was used to suppress MEOX1 expression for another 5 days (days 3-8). Next, the cells were treated with E6FVR medium (E6 medium with 100 ng/ml FGF2, 50 ng/ml VEGFA, and 5 μM RESV, a NOTCH agonist) to induce SMC progenitors from day 8-12. E6R (E6 medium+5 μM RESV) medium supplemented with RepSox (25 μM), was then used to further mature SMCs from day 12 to 24. Cells were split (1×10^5 cells/cm2) at day 16 and further differentiated until day 24. The cells can be cryopreserved at day 16 or day 24. For P-SMCs, T-SMCs, and PT-SMCs, RepSox was replaced by PDGF-BB (10 ng/ml), TGF-β1 (1.7 ng/ml), or combination of PDGF-BB and TGF-β1, respectively, from day 12 to 24. From day 0-4: medium was changed every day. From day 2-24: medium was changed every other day. For day 1 and day 8-24, 1.5×volumes of medium, compared to the normal volume used in the well, were used. […]

Series [4] deals with intimal hyperplasia. To be noted: DeRose 1999; Gulkarov 2009; Sawada 2000; cited from earlier work.
For series [5], the system named is Human pluripotent stem cell cells (H1). Description: Mesoderm differentiation of H1 cells in E8BAC medium. Type of series: cell-based. Particulars: CHIR99021 increased to 3 μM (from 1 μM). As to the method: The cells reached 80-90% confluency two days later. At the day of the differentiation, ES cells were dissociated by […] (Invitrogen) for 3-5 min at 37 ° C. The cells were plated on a […]-coated plate at 1:4 ratios (1×10^5 cells/cm2). […] An increased CHIR99021 concentration of 3 μM decreased cell proliferation at 36 hours but increased MYH11 expression. At 36 hours, the cells were passaged and seeded on a new […]-coated plate (1.6×10^4 cells/cm2). The low cell density is critical for the differentiation. […] […] (E6 medium+5 μM RESV) medium supplemented with RepSox (25 μM), was then used to further mature SMCs from day 12 to 24. Cells were split (1×10^5 cells/cm2) at day 16 and further differentiated until day 24. The cells can be cryopreserved at day 16 or day 24. […] From day 0-4: medium was changed every day. From day 2-24: medium was changed every other day. For day 1 and day 8-24, 1.5×volumes of medium, compared to the normal volume used in the well, were used.

Structures can show the parent of a compound that is named as a salt.

For the molecule `CC(=O)[N-]S(=O)(=O)c1ccc(N)cc1.O.[Na+]` [sulfacetamide sodic hydrate, Sulfacetamide sodic hydrate], the “promotes MYH11+ SMC differentiation (increased MYH11 promoter-driven luciferase activity)” value in series [1] is recorded as “promotes MYH11^+ SMC differentiation”.
Consider `CO[C@H]1C[C@@H]2CC[C@@H](C)[C@@](O)(O2)C(=O)C(=O)N2CCCC[C@H]2C(=O)O[C@H]([C@H](C)C[C@@H]2CC[C@@H](O)[C@H](OC)C2)CC(=O)[C@H](C)/C=C(\C)[C@@H](O)[C@@H](OC)C(=O)[C@H](C)C[C@H](C)/C=C/C=C/C=C/1C` [rapamycin], for which the “effect on endothelium repair” value in series [2] was “suppressed”.
As to `CNC(=O)c1cc(Oc2ccc(NC(=O)Nc3ccc(Cl)c(C(F)(F)F)c3)cc2)ccn1` [sorafenib, Sorafenib (Nexavar)], the “promotes MYH11+ SMC differentiation (increased MYH11 promoter-driven luciferase activity)” value in series [1] is “promotes MYH11^+ SMC differentiation”.
With `NC(=O)c1sc(-n2cnc3ccccc32)cc1OCc1ccccc1Br` [GSK1023156A], the “promotes MYH11+ SMC differentiation (increased MYH11 promoter-driven luciferase activity)” value in series [1] was “promotes MYH11^+ SMC differentiation”.
As for `CC(C)(C(=O)NCC(F)(F)C(F)(F)F)C(=O)N[C@@H]1C(=O)Nc2ccccc2-c2ccccc21` [R04929097], in series [3], the “effect on RepSox improvement of MYH11-Tom+ cell differentiation” value (from here on “effect … of MYH11-Tom+ cell differentiation”) was “abolished”.
For `CC#CCn1c(N2CCC[C@@H](N)C2)nc2c1c(=O)n(Cc1nc(C)c3ccccc3n1)c(=O)n2C` [BI-1356], the “promotes MYH11+ SMC differentiation (increased MYH11 promoter-driven luciferase activity)” value in series [1] is “promotes MYH11^+ SMC differentiation”.
Turning to `C[C@H](NC(=O)Cc1cc(F)cc(F)c1)C(=O)N[C@@H]1C(=O)N(C)c2ccccc2-c2ccccc21` [DBZ], the “effect … of MYH11-Tom+ cell differentiation” value in series [3] is “abolished”.
With `N[C@@H](CC(=O)N1CCn2c(nnc2C(F)(F)F)C1)Cc1cc(F)c(F)cc1F` [sitagliptin, Sitagliptin], the “promotes MYH11+ SMC differentiation (increased MYH11 promoter-driven luciferase activity)” value in series [1] is reported as “promotes MYH11^+ SMC differentiation”.
Take `CNC(=O)c1cc(Oc2ccc(NC(=O)Nc3cc(C(C)(C)C)nn3-c3ccc4ncccc4c3)c(F)c2)ccn1` [DCC-2036, DCC-2036 (Rebastinib)]: in series [1], the “promotes MYH11+ SMC differentiation (increased MYH11 promoter-driven luciferase activity)” value is listed as “promotes MYH11^+ SMC differentiation”.
`CN(C)C(=O)OC1CNC(C#Cc2cc3ncnc(Nc4ccc(OCc5cccc(F)c5)c(Cl)c4)c3s2)C1` (stereo not shown) [GSK182497A]: the “promotes MYH11+ SMC differentiation (increased MYH11 promoter-driven luciferase activity)” value in series [1] is listed as “promotes MYH11^+ SMC differentiation”.
Take `O=C(Nc1ccc(OC(F)(F)F)cc1)c1sccc1NCc1ccnc2ccccc12` [OSI-930]: the “promotes MYH11+ SMC differentiation (increased MYH11 promoter-driven luciferase activity)” value in series [1] was “promotes MYH11^+ SMC differentiation”.
In the case of `CCO.N#CC(=C(/N)Sc1ccccc1N)/C(C#N)=C(\N)Sc1ccccc1N` [UO126, U0126-EtOH], the “promotes MYH11+ SMC differentiation (increased MYH11 promoter-driven luciferase activity)” value in series [1] is on record as “promotes MYH11^+ SMC differentiation”. In series [4], the “inhibition of intimal hyperplasia in previous studies” value (“inhibition of intimal hyperplasia” below) is recorded as “inhibit intimal hyperplasia”.
Take `COC(=O)Nc1nc2ccc(Sc3ccc(NC(=O)Nc4cc(C(F)(F)F)ccc4F)cc3)cc2[nH]1` [GSK607049C]: the “promotes MYH11+ SMC differentiation (increased MYH11 promoter-driven luciferase activity)” value in series [1] is given as “promotes MYH11^+ SMC differentiation”.
Turning to `Nc1ccc(S(=O)(=O)Nc2ccnn2-c2ccccc2)cc1` [sulfaphenazole, Sulfaphenazole], the “promotes MYH11+ SMC differentiation (increased MYH11 promoter-driven luciferase activity)” value in series [1] is given as “promotes MYH11^+ SMC differentiation”.
Same read-out and setting: with `N[C@@H]1C[C@H]1c1ccccc1` [tranylcypromine hydrochloride, Tranylcypromine hydrochloride] the entry was “promotes MYH11^+ SMC differentiation”.
In the case of `C[C@H](NC(=O)Cc1cc(F)cc(F)c1)C(=O)N[C@H](C(=O)OC(C)(C)C)c1ccccc1` [DAPT], the “effect … of MYH11-Tom+ cell differentiation” value in series [3] is on record as “abolished”.
For `O=C(O)C(Cc1c[nH]c2ccccc12)N1C(=O)c2ccccc2C1=O` (stereo not shown) [RG108], the “promotes MYH11+ SMC differentiation (increased MYH11 promoter-driven luciferase activity)” value in series [1] is on record as “promotes MYH11^+ SMC differentiation”.
Take `C[C@@H](N)[C@H]1CC[C@H](C(=O)Nc2ccncc2)CC1` [Y27632]: the “promotes MYH11+ SMC differentiation (increased MYH11 promoter-driven luciferase activity)” value in series [1] is “promotes MYH11^+ SMC differentiation”. The “inhibition of intimal hyperplasia” value in series [4] is “inhibit intimal hyperplasia”.
As to `CC(C(=O)O)c1ccc(-c2ccccc2)c(F)c1` (stereo not shown) [flurbiprofen, Flurbiprofen], the “promotes MYH11+ SMC differentiation (increased MYH11 promoter-driven luciferase activity)” value in series [1] is “promotes MYH11^+ SMC differentiation”.
With `COc1cc2ncnc(Nc3ccc4c(cnn4Cc4ccccc4)c3)c2cc1OC` [GSK282449A], in series [1], the “promotes MYH11+ SMC differentiation (increased MYH11 promoter-driven luciferase activity)” value is listed as “promotes MYH11^+ SMC differentiation”.
Consider `Cc1ccc(NC(=O)c2ccc(CN3CCN(C)CC3)cc2)cc1Nc1nccc(-c2cccnc2)n1` [imatinib, Imatinib Mesylate], for which the “promotes MYH11+ SMC differentiation (increased MYH11 promoter-driven luciferase activity)” value in series [1] is given as “promotes MYH11^+ SMC differentiation”.
For `Cc1c[nH]c(-c2cnc(NCCNc3ccc(C#N)cn3)nc2-c2ccc(Cl)cc2Cl)n1` [CHIR99021], in series [5], the MYH11 expression entry is listed as “increased” and the “cell proliferation at 36 hours” value is “decreased”.
Regarding `CC1=C(/C=C/C(C)=C/C=C/C(C)=C/C(=O)O)C(C)(C)CCC1` [retinoic acid, All-Trans Retinoic Acid], the “promotes MYH11+ SMC differentiation (increased MYH11 promoter-driven luciferase activity)” value in series [1] was “promotes MYH11^+ SMC differentiation”. For the same molecule, in series [4], the “inhibition of intimal hyperplasia” value is reported as “inhibit intimal hyperplasia”.
With `NS(=O)(=O)c1cc2c(cc1C(F)(F)F)NCNS2(=O)=O` [hydroflumethiazide, Hydroflumethiazide], in series [1], the “promotes MYH11+ SMC differentiation (increased MYH11 promoter-driven luciferase activity)” value is listed as “promotes MYH11^+ SMC differentiation”.

(Values after patent publication US20190010461A1, “HUMAN PLURIPOTENT STEM CELL-BASED SCREENING FOR SMOOTH MUSCLE CELL DIFFERENTIATION AND DISEASE” (Wisconsin Alumni Research Foundation, priority 2017, published 2019).)
